Laboratory results reported in ChEMBL document CHEMBL3526096, “Species differences in biliary clearance and possible relevance of hepatic uptake and efflux transporters involvement” (Drug Metab Dispos, 2013).
One block for each compound: values may come before it.

Experiments:
[1] = Drug excretion in beagle dog assessed as compound excreted into bile at 20 mg/kg, iv; assay type: ADME, organism-based, Canis lupus familiaris; design: dose 20 mg/kg, route intravenous; conditions: read-out: Drug excretion
Rattus norvegicus [2] = experiment: Unbound biliary clearance in Sprague-Dawley rat at 20 mg/kg, iv; assay type: ADME, organism-based, Bile; design: dose 20 mg/kg, route intravenous; conditions: in vivo
Homo sapiens [3] = experiment: Total biliary clearance in human at 1 gm, iv after 24 hrs by T-tube method; assay type: ADME, organism-based, Bile; conditions: in vivo
Canis familiaris [4] = experiment: Unbound biliary clearance in beagle dog at 20 mg/kg, iv; assay type: ADME, organism-based, Canis lupus familiaris, Bile; design: dose 20 mg/kg, route intravenous; conditions: in vivo
Canis familiaris [5] = experiment: Total biliary clearance in beagle dog at 20 mg/kg, iv; assay type: ADME, organism-based, Canis lupus familiaris, Bile; design: dose 20 mg/kg, route intravenous; conditions: in vivo
Rattus norvegicus [6] = experiment: Total biliary clearance in Sprague-Dawley rat at 20 mg/kg, iv; assay type: ADME, organism-based, Bile; design: dose 20 mg/kg, route intravenous; conditions: in vivo
[7] = Drug excretion in Sprague-Dawley rat assessed as compound excreted into bile at 20 mg/kg, iv; assay type: ADME, organism-based; design: dose 20 mg/kg, route intravenous; conditions: read-out: Drug excretion
Homo sapiens [8] = experiment: Unbound biliary clearance in human at 1 gm, iv after 24 hrs by T-tube method; assay type: ADME, organism-based, Bile; conditions: in vivo
[9] = Drug excretion in human assessed as compound excreted into bile at 1 gm, iv after 24 hrs by T-tube method; assay type: ADME, organism-based; conditions: read-out: Drug excretion
Homo sapiens [10] = experiment: Total biliary clearance in human at 200 mg, po after 24 hrs by T-tube method; assay type: ADME, organism-based, Bile; conditions: in vivo
[11] = Drug excretion in human assessed as compound excreted into bile at 200 mg, po after 24 hrs by T-tube method; assay type: ADME, organism-based; conditions: read-out: Drug excretion
Rattus norvegicus [12] = experiment: Total biliary clearance in iv dosed rat; assay type: ADME, organism-based, Bile; conditions: in vivo
Homo sapiens [13] = experiment: Unbound biliary clearance in human at 200 mg, po after 24 hrs by T-tube method; assay type: ADME, organism-based, Bile; conditions: in vivo
Rattus norvegicus [14] = experiment: Unbound biliary clearance in iv dosed rat; assay type: ADME, organism-based, Bile; conditions: in vivo
[15] = Drug excretion in iv dosed rat assessed as compound excreted into bile; assay type: ADME, organism-based; conditions: read-out: Drug excretion
Rattus norvegicus [16] = experiment: Unbound biliary clearance in iv dosed Wistar rat; assay type: ADME, organism-based, Bile; conditions: in vivo
[17] = Drug excretion in iv dosed human assessed as compound excreted into bile after 8 hrs by T-tube method; assay type: ADME, organism-based; conditions: read-out: Drug excretion
Rattus norvegicus [18] = experiment: Total biliary clearance in iv dosed Wistar rat; assay type: ADME, organism-based, Bile; conditions: in vivo
Homo sapiens [19] = experiment: Unbound biliary clearance in iv dosed human after 8 hrs by T-tube method; assay type: ADME, organism-based, Bile; conditions: in vivo
[20] = Drug excretion in iv dosed Wistar rat assessed as compound excreted into bile; assay type: ADME, organism-based; conditions: read-out: Drug excretion
Homo sapiens [21] = experiment: Total biliary clearance in iv dosed human after 8 hrs by T-tube method; assay type: ADME, organism-based, Bile; conditions: in vivo
Homo sapiens [22] = experiment: Unbound biliary clearance in iv dosed human after 24 hrs by T-tube method; assay type: ADME, organism-based, Bile; conditions: in vivo
Homo sapiens [23] = experiment: Total biliary clearance in iv dosed human after 24 hrs by T-tube method; assay type: ADME, organism-based, Bile; conditions: in vivo
Canis familiaris [24] = experiment: Unbound biliary clearance in iv dosed dog; assay type: ADME, organism-based, Canis lupus familiaris, Bile; conditions: in vivo
[25] = Drug excretion in iv dosed human assessed as compound excreted into bile after 24 hrs by T-tube method; assay type: ADME, organism-based; conditions: read-out: Drug excretion
Canis familiaris [26] = experiment: Total biliary clearance in iv dosed dog; assay type: ADME, organism-based, Canis lupus familiaris, Bile; conditions: in vivo
[27] = Drug excretion in iv dosed dog assessed as compound excreted into bile; assay type: ADME, organism-based, Canis lupus familiaris; conditions: read-out: Drug excretion
[28] = Drug excretion in iv dosed Sprague-Dawley rat assessed as compound excreted into bile; assay type: ADME, organism-based; conditions: read-out: Drug excretion
Rattus norvegicus [29] = experiment: Total biliary clearance in iv dosed Sprague-Dawley rat; assay type: ADME, organism-based, Bile; conditions: in vivo
Homo sapiens [30] = experiment: Total biliary clearance in human at 1 nmol/l, iv after 8 hrs by duodenal perfusion method; assay type: ADME, organism-based, Bile; conditions: in vivo
Homo sapiens [31] = experiment: Unbound biliary clearance in human at 1 nmol/l, iv after 8 hrs; assay type: ADME, organism-based, Bile; conditions: in vivo
Rattus norvegicus [32] = experiment: Unbound biliary clearance in iv dosed Sprague-Dawley rat; assay type: ADME, organism-based, Bile; conditions: in vivo
[33] = Drug excretion in human assessed as compound excreted into bile at 1 nmol/l, iv after 8 hrs; assay type: ADME, organism-based; conditions: read-out: Drug excretion

dose excreted [1]: 19%
CL free (Rattus norvegicus [2]): 9.667 mL/min/kg
CL (Homo sapiens [3]): 0.04 mL/min/kg
CL free (Canis familiaris [4]): 1.399 mL/min/kg
CL (Canis familiaris [5]): 0.979 mL/min/kg
CL (Rattus norvegicus [6]): 5.22 mL/min/kg
dose excreted [7]: 58%
CL free (Homo sapiens [8]): 1 mL/min/kg
dose excreted at 24 h [9]: 28%
Structure (SMILES): Cc1cc(O)c(C(=O)N[C@@H](C(=O)N[C@@H]2C(=O)N3C(C(=O)O)=C(CSc4nnnn4C)CS[C@H]23)c2ccc(O)cc2)cn1 [CEFPIRAMIDE]

CL (Homo sapiens [10]): 0.14 mL/min/kg
dose excreted at 24 h [11]: 11%
CL (Rattus norvegicus [12]): 1 mL/min/kg
CL free (Homo sapiens [13]): 0.452 mL/min/kg
CL free (Rattus norvegicus [14]): 7.143 mL/min/kg
dose excreted [15]: 41%
Structure (SMILES): C=CC1=C(C(=O)O)N2C(=O)[C@@H](NC(=O)/C(=N\OCC(=O)O)c3csc(N)n3)[C@H]2SC1 [CEFIXIME]

CL free (Rattus norvegicus [16]): 94.44 mL/min/kg
dose excreted at 8 h [17]: 1%
CL (Rattus norvegicus [18]): 0.85 mL/min/kg
CL free (Homo sapiens [19]): 8.4 mL/min/kg
dose excreted [20]: 5%
CL (Homo sapiens [21]): 0.042 mL/min/kg
Structure (SMILES): O=C([O-])Cc1ccccc1Nc1c(Cl)cccc1Cl.[Na+] [DICLOFENAC SODIUM]

CL free (Homo sapiens [22]): 1.108 mL/min/kg
CL (Homo sapiens [23]): 0.048 mL/min/kg
CL (Rattus norvegicus [12]): 9.6 mL/min/kg
CL free (Canis familiaris [24]): 0.344 mL/min/kg
dose excreted at 24 h [25]: 10%
CL free (Rattus norvegicus [14]): 12.47 mL/min/kg
CL (Canis familiaris [26]): 0.217 mL/min/kg
dose excreted [15]: 64%
Structure (SMILES): CN(Cc1cnc2nc(N)nc(N)c2n1)c1ccc(C(=O)N[C@@H](CCC(=O)O)C(=O)O)cc1 [METHOTREXATE]

dose excreted [27]: 7%
dose excreted [28]: 31%
CL free (Canis familiaris [24]): 2.68 mL/min/kg
CL (Rattus norvegicus [29]): 3.03 mL/min/kg
CL (Homo sapiens [30]): 1.595 mL/min/kg
CL free (Homo sapiens [31]): 2.279 mL/min/kg
CL free (Rattus norvegicus [32]): 4.329 mL/min/kg
dose excreted at 8 h [33]: 41%
CL (Canis familiaris [26]): 1.313 mL/min/kg
Structure (SMILES): C[C@H]1O[C@@H](O[C@H]2[C@@H](O)C[C@H](O[C@H]3[C@@H](O)C[C@H](O[C@H]4CC[C@@]5(C)[C@H](CC[C@@H]6[C@@H]5C[C@@H](O)[C@]5(C)[C@@H](C7=CC(=O)OC7)CC[C@]65O)C4)O[C@@H]3C)O[C@@H]2C)C[C@H](O)[C@@H]1O [DIGOXIN]
